# According to patent US20020137929A1, “1 - (3-heterocyclylphenyl) isothiourea, -isourea, -guanidine and -amidine herbicidal agents” (Intellectual Property Department, BASF Aktiengesellschaft, priority 1998, published 2002):
# Legend:
# AMBEL (Ragweed, Common) [1] = experiment: Postemergence herbicidal evaluation; type: in vivo, Ambrosia artemisifolia; details: postemergence
# Method in brief: (§1)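 Two-week-old seedlings sprayed with compound in 50/50 acetone/water plus 0.5% TWEEN 20, at about 0.0156 to 0.500 kg/ha, nozzle at 40 psi. Kept in greenhouse; rated visually 4-5 weeks after treatment on a 0-9 scale versus control, repeat tests averaged.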
# ABUTH (Velvetleaf) = experiment: Preemergence herbicidal evaluation; type: in vivo, Abutilon theophrasti; details: rated 4-5 weeks after treatment, rating scale 0-9
# Method in brief: (§2)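 Each species is sown separately in potting soil over roughly an inch of soil before any emergence. The soil surface then receives an aqueous acetone spray delivering about 0.0156 to 0.500 kg/ha of compound. After four to five weeks, injury is scored from 0 to 9 relative to a control.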
# [2] = test system: GLXMAW (Soybean, Williams); experiment: Preemergence herbicidal evaluation; type: in vivo, Glycine max, (L.) Merr. cv Williams; details: rated 4-5 weeks after treatment, rating scale 0-9
# Method in brief: as §2
# [3] = test system: IPOHE (Morningglory, Ivyleaf); experiment: Postemergence herbicidal evaluation; type: in vivo, Ipomoea hederacea; details: postemergence
# Method in brief: as §1
# AMBEL (Ragweed, Common) [4] = experiment: Preemergence herbicidal evaluation; type: in vivo, Ambrosia artemisifolia; details: rated 4-5 weeks after treatment, rating scale 0-9
# Method in brief: as §2
# CASOB (Sicklepod) [5] = experiment: Postemergence herbicidal evaluation; type: in vivo, Cassia obtusifolia; details: postemergence
# Method in brief: as §1
# MOOVA (Monochoria) = experiment: Preemergence weed control under flooded paddy conditions; type: in vivo, Monochoria vaginalis; details: rated 3-4 weeks after treatment
# Method in brief: (§3)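 Greenhouse paddy assay. Acetone/water (50/50 v/v) solutions dosed into flood water, equivalent to about 0.0313 to 0.500 kg/ha active ingredient, over seeds planted 0.5 cm deep in silt loam. Score: 0-9 visual, based on stand, vigor, malformation, size and chlorosis, 3 to 4 weeks after treatment.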
# ECHCG (Barnyardgrass) = experiment: Postemergence herbicidal evaluation; type: in vivo, Echinochloa crus-galli; details: postemergence
# Method in brief: as §1
# [6] = test system: CHEAL (Lambsquarters, Common); experiment: Preemergence herbicidal evaluation; type: in vivo, Chenopodium album; details: rated 4-5 weeks after treatment, rating scale 0-9
# Method in brief: as §2
# [7] = test system: CHEAL (Lambsquarters, Common); experiment: Postemergence herbicidal evaluation; type: in vivo, Chenopodium album; details: postemergence
# Method in brief: as §1
# [8] = test system: IPOHE (Morningglory, Ivyleaf); experiment: Preemergence herbicidal evaluation; type: in vivo, Ipomoea hederacea; details: rated 4-5 weeks after treatment, rating scale 0-9
# Method in brief: as §2
# ORYSAT (Rice, Tebonnet) = experiment: Preemergence herbicidal evaluation; type: in vivo, Oryza sativa, (L.) Tebonnet; details: rated 4-5 weeks after treatment, rating scale 0-9
# Method in brief: as §2
# [9] = test system: GLXMAW (Soybean, Williams); experiment: Postemergence herbicidal evaluation; type: in vivo, Glycine max, (L.) Merr. cv Williams; details: postemergence
# Method in brief: as §1
# CASOB (Sicklepod) [10] = experiment: Preemergence herbicidal evaluation; type: in vivo, Cassia obtusifolia; details: rated 4-5 weeks after treatment, rating scale 0-9
# Method in brief: as §2
# [11] = test system: SAGPY (Arrowhead (Pygmaea)); experiment: Preemergence weed control under flooded paddy conditions; type: in vivo, Sagittaria pygmaea; details: rated 3-4 weeks after treatment
# Method in brief: as §3
# [12] = test system: TRZAWR (Wheat, Winter, cv Riband); experiment: Postemergence herbicidal evaluation; type: in vivo, Triticum aestivum; details: postemergence
# Method in brief: as §1
compound,measurement,setting,value
"CN(C)c1ccc(CN2C(=O)CSC2=Nc2cc(-n3c(=O)cc(C(F)(F)F)n(C)c3=O)c(F)cc2Cl)cc1 [Compound 138, 3-{4-Chloro-5-{{3-[p-(dimethylamino)benzyl]-4-oxo-2-thiazolidinylidene}amino}-2-fluorophenyl}-1-methyl-6-(trifluoromethyl)-2,4(1H,3H)-pyrimidinedione]",Herbicidal rating AMBEL,"AMBEL (Ragweed, Common) [1]; rate 0.0156 kg/ha",9.0
same,Herbicidal rating AMBEL,"AMBEL (Ragweed, Common) [1]; rate 0.0313 kg/ha",9.0
same,Herbicidal rating AMBEL,"AMBEL (Ragweed, Common) [1]; rate 0.0625 kg/ha",9.0
same,Preemergence herbicidal rating ABUTH,ABUTH (Velvetleaf); rate 0.0156 kg/ha,0.0
same,Preemergence herbicidal rating ABUTH,ABUTH (Velvetleaf); rate 0.0313 kg/ha,0.0
same,Preemergence herbicidal rating ABUTH,ABUTH (Velvetleaf); rate 0.0625 kg/ha,0.0
same,Preemergence herbicidal rating ABUTH,ABUTH (Velvetleaf); rate 0.1250 kg/ha,9.0
same,Preemergence herbicidal rating ABUTH,ABUTH (Velvetleaf); rate 0.2500 kg/ha,9.0
same,Preemergence herbicidal rating GLXMAW,[2]; rate 0.0156 kg/ha,0.0
same,Preemergence herbicidal rating GLXMAW,[2]; rate 0.0313 kg/ha,0.0
same,Preemergence herbicidal rating GLXMAW,[2]; rate 0.0625 kg/ha,0.0
same,Preemergence herbicidal rating GLXMAW,[2]; rate 0.1250 kg/ha,0.0
same,Preemergence herbicidal rating GLXMAW,[2]; rate 0.2500 kg/ha,1.0
same,Herbicidal rating IPOHE,[3]; rate 0.0156 kg/ha,9.0
same,Herbicidal rating IPOHE,[3]; rate 0.0313 kg/ha,9.0
same,Herbicidal rating IPOHE,[3]; rate 0.0625 kg/ha,9.0
same,Preemergence herbicidal rating AMBEL,"AMBEL (Ragweed, Common) [4]; rate 0.0156 kg/ha",0.0
same,Preemergence herbicidal rating AMBEL,"AMBEL (Ragweed, Common) [4]; rate 0.0313 kg/ha",0.0
same,Preemergence herbicidal rating AMBEL,"AMBEL (Ragweed, Common) [4]; rate 0.0625 kg/ha",0.0
same,Preemergence herbicidal rating AMBEL,"AMBEL (Ragweed, Common) [4]; rate 0.1250 kg/ha",1.0
same,Preemergence herbicidal rating AMBEL,"AMBEL (Ragweed, Common) [4]; rate 0.2500 kg/ha",2.0
same,Herbicidal rating CASOB,CASOB (Sicklepod) [5]; rate 0.0156 kg/ha,0.0
same,Herbicidal rating CASOB,CASOB (Sicklepod) [5]; rate 0.0313 kg/ha,1.0
same,Herbicidal rating CASOB,CASOB (Sicklepod) [5]; rate 0.0625 kg/ha,6.0
same,"herbicidal effect rating, MOOVA",MOOVA (Monochoria); 0.0313 kg/ha,5.0
same,"herbicidal effect rating, MOOVA",MOOVA (Monochoria); 0.0625 kg/ha,6.0
same,"herbicidal effect rating, MOOVA",MOOVA (Monochoria); 0.1250 kg/ha,6.0
same,"herbicidal effect rating, MOOVA",MOOVA (Monochoria); 0.2500 kg/ha,7.0
same,Herbicidal rating ECHCG,ECHCG (Barnyardgrass); rate 0.0156 kg/ha,1.0
same,Herbicidal rating ECHCG,ECHCG (Barnyardgrass); rate 0.0313 kg/ha,1.0
same,Herbicidal rating ECHCG,ECHCG (Barnyardgrass); rate 0.0625 kg/ha,2.0
same,Preemergence herbicidal rating CHEAL,[6]; rate 0.0156 kg/ha,1.0
same,Preemergence herbicidal rating CHEAL,[6]; rate 0.0313 kg/ha,9.0
same,Preemergence herbicidal rating CHEAL,[6]; rate 0.0625 kg/ha,7.0
same,Preemergence herbicidal rating CHEAL,[6]; rate 0.1250 kg/ha,9.0
same,Preemergence herbicidal rating CHEAL,[6]; rate 0.2500 kg/ha,9.0
same,Herbicidal rating CHEAL,[7]; rate 0.0156 kg/ha,9.0
same,Herbicidal rating CHEAL,[7]; rate 0.0313 kg/ha,9.0
same,Herbicidal rating CHEAL,[7]; rate 0.0625 kg/ha,9.0
same,Preemergence herbicidal rating IPOHE,[8]; rate 0.0156 kg/ha,0.0
same,Preemergence herbicidal rating IPOHE,[8]; rate 0.0313 kg/ha,0.0
same,Preemergence herbicidal rating IPOHE,[8]; rate 0.0625 kg/ha,0.0
same,Preemergence herbicidal rating IPOHE,[8]; rate 0.1250 kg/ha,0.0
same,Preemergence herbicidal rating IPOHE,[8]; rate 0.2500 kg/ha,0.0
same,Preemergence herbicidal rating ORYSAT,"ORYSAT (Rice, Tebonnet); rate 0.0156 kg/ha",0.0
same,Preemergence herbicidal rating ORYSAT,"ORYSAT (Rice, Tebonnet); rate 0.0313 kg/ha",0.0
same,Preemergence herbicidal rating ORYSAT,"ORYSAT (Rice, Tebonnet); rate 0.0625 kg/ha",0.0
same,Preemergence herbicidal rating ORYSAT,"ORYSAT (Rice, Tebonnet); rate 0.1250 kg/ha",0.0
same,Preemergence herbicidal rating ORYSAT,"ORYSAT (Rice, Tebonnet); rate 0.2500 kg/ha",0.0
same,Herbicidal rating GLXMAW,[9]; rate 0.0156 kg/ha,5.0
same,Herbicidal rating GLXMAW,[9]; rate 0.0313 kg/ha,6.0
same,Herbicidal rating GLXMAW,[9]; rate 0.0625 kg/ha,6.5
same,Preemergence herbicidal rating CASOB,CASOB (Sicklepod) [10]; rate 0.0156 kg/ha,0.0
same,Preemergence herbicidal rating CASOB,CASOB (Sicklepod) [10]; rate 0.0313 kg/ha,0.0
same,Preemergence herbicidal rating CASOB,CASOB (Sicklepod) [10]; rate 0.0625 kg/ha,0.0
same,Preemergence herbicidal rating CASOB,CASOB (Sicklepod) [10]; rate 0.1250 kg/ha,0.0
same,Preemergence herbicidal rating CASOB,CASOB (Sicklepod) [10]; rate 0.2500 kg/ha,0.0
same,"herbicidal effect rating, SAGPY",[11]; 0.0313 kg/ha,0.0
same,"herbicidal effect rating, SAGPY",[11]; 0.0625 kg/ha,0.0
same,"herbicidal effect rating, SAGPY",[11]; 0.1250 kg/ha,0.0
same,"herbicidal effect rating, SAGPY",[11]; 0.2500 kg/ha,3.0
same,Herbicidal rating TRZAWR,[12]; rate 0.0156 kg/ha,2.5
same,Herbicidal rating TRZAWR,[12]; rate 0.0313 kg/ha,3.0
same,Herbicidal rating TRZAWR,[12]; rate 0.0625 kg/ha,3.0
